A value given as a limit tells only on which side of the number the result lay.

Five compounds from ChEMBL document CHEMBL1126347, “Competitive NMDA antagonist that base their activity on a unique conformational effect” (Bioorg Med Chem Lett, 1992) can be followed below.

In this assay the target is Glutamate NMDA receptor. Briefly: The compound was tested for NMDA antagonist activity against [3H]-CGS- 19755 binding in rat cortex preparation.
For the compound `O=C(CP(=O)(O)O)[C@H]1CCCN[C@H]1C(=O)O` (stereo in doubt; 15), the Ki is above 1000 nM.
The value for `O=C(O)[C@@H]1NCCC[C@@H]1C(O)CP(=O)(O)O` (stereo not given in full) was 106 nM; that for `O=C(CP(=O)(O)O)[C@H]1CCCN[C@H]1C(=O)O` (stereo in doubt; 14) was 64 nM; that for `O=C(CP(=O)(O)O)[C@H]1CCCN[C@H]1C(=O)O` (stereo in doubt; 1) was 69 nM.
The value for `O=C(O)[C@@H]1C[C@H](CP(=O)(O)O)CCN1` (single isomer, unassigned) [SELFOTEL] was 40 nM.
